Measurements from patent publication US20250270170A1, “2,3-DIMETHOXY-5-METHYL-1,4-BENZOQUINONE ALKYL ALCOHOL DERIVATIVE AND USE THEREOF” (BEIJING ANJIANXI BIO-MEDICAL TECHNOLOGY CO., LTD., priority 2021, published 2025).

Assays:
NCI-H460 cells = experiment: Flow cytometry for apoptosis detection (Annexin V-FITC/PI), NCI-H460; type: cell-based, human; settings: 72 h
Description: (1) Cells were inoculated in a 6-well plate. When the cell growth density was appropriate, four concentrations (0 μM, 10 μM, 30 μM, and 90 μM) of the compound of formula (I) were added, and placed in an incubator at 37° C. with 5% CO2 to continue culturing for 72 hours.
(2) After reaching the designated time point, the cell culture plate was taken out from the incubator, and placed in a biological safety cabinet. A 4 ml centrifuge tube was taken and marked. The supernatant in the 6-well plate was pipetted out and added to the corresponding 4 ml centrifuge tube. The cells were gently washed with PBS, and the PBS was added to the corresponding centrifuge tube. An appropriate amount of trypsin was added to each well to digest the cells. When the cells were digested to a moderate degree, the liquid in the centrifuge tube was added to the corresponding well. The cells were gently pipetted with a pipette to disperse the cells, and was pipetted back into the original centrifuge tube. The tube was immediately centrifuged at 1500 rpm for 5 minutes. Then, the supernatant was discarded and the precipitate was retained.
(3) 2 ml of PBS was added to the centrifuge tube, which was centrifuged again at 1000 rpm for 5 minutes. The supernatant was discarded. This step was repeated again.
(4) The cells were suspended with 1× Binding buffer, and the cell concentration was adjusted to approximately 1×10^6 cells/ml. 100 μl of cell suspension was added to the flow cytometry tube, and 5 μl of PI and 5 μl of Annexin V-FITC were added to each tube. The cells were gently vortexed, and incubated at room temperature in dark for 15 min.
(5) 400 μl of 1× Binding buffer was further added to each tube, and the detection was performed on the flow cytometer (the detection was in need to be completed within 1 hour).
We used AnnexinV-FITC and PI double staining method for apoptosis staining. FL1 channel was selected for FITC, and FL2 channel was selected for PI. Flow cytometry analysis was used to detect cell apoptosis. Q1, Q2, Q3, and Q4 represented dead cells, late apoptotic cells, early apoptotic cells, and normal cells, respectively (FIG. 7). After treating A549 and NCI-H460 cells with the compound of formula (I) at different concentrations (0 μM, 10 μM, 30 μM, and 90 μM) for 72 h, the flow cytometry results are as follows. Table 1 and Table 2 show the proportions of dead cells, late apoptotic cells, early apoptotic cells, and normal cells after treating the A549 and NCI-H460 cells with different concentrations of the compound of formula (I), respectively.

ICR mice = experiment: Example 5: acute toxicity, single gavage administration; type: in vivo
Description: Preparation of the administration formulation of the test sample: A mixture of the compound of formula (I) and ethanol/ethyl acetate (v/v, 1/3) with a ratio of 1:1.5 was dissolved by sonication at room temperature. 2.25 equivalents of compound of formula (I) of PVP were added, and the mixture was stirred vigorously at room temperature for 20 minutes. Then, 2 equivalents of the compound of formula (I) of lactose were added, and the mixture was stirred vigorously at room temperature for 20 minutes. The mixture was dried in an oven at 50° C. and then pulverized to give a yellow powder formulation of the compound of formula (I). Then, an appropriate amount of the formulation of compound of formula (I) was weighed, and an appropriate volume of 0.5% CMC-Na aqueous solution was added. The mixture was vortexed and sonicated to mix evenly (if necessary, shear emulsification may be performed), to give an administration formulation of the test sample. The administration formulation was prepared twice a week, and 3 or 4 days of dosage was prepared each time, which was divided and stored in a 0-8° C. refrigerator for later use. When the test sample was used, a final volume mark was marked on a container, and a required amount of the test sample was weighed (weighing weight of the test sample=theoretical dosage*conversion factor) into a clean and dry container. An appropriate amount of solvent was firstly added, and the mixture was stirred and mixed thoroughly, and sonicated if necessary. The solvent was further added to the final volume mark to dilute and mix evenly, to give a visually uniform formulation. […] The administration formulation of the test sample was stable within 24 hours when being stored airtightly at room temperature in dark, and was stable within 8 days when being stored airtightly at 2° C. to 8° C. in dark.
• Species: ICR mice • Grade: SPF grade
Number and gender of the animals being used: 40, half male and half female;
Body weight: The body weight of the female group was from 25.9 to 29.7 g; the body weight of the male group was from 27.7 to 30.8 g;
Age at the time of administration: 38 to 44 days (female), 31 to 44 days (male)
Route of Administration: Gavage Administration
Administration frequency: once/day
Administration period: 1 day
The dosage was calculated based on the body weight of the animals weighed on D1 after fasting (with water access) overnight. The feed was given approximately 2 hours after drug administration.
The administration formulation in each group was stirred at room temperature for at least 10 minutes, and suspended uniformly with visual inspection before the administration. The administration formulation was required to be continually stirred during the administration.
Observation indicators: observation of general physical signs, body weight, food intake, animal anatomy and histopathological examination were included.

SMILES: COC1=C(OC)C(=O)C(CCCCCCCCCCOC(=O)Cc2c(C)n(C(=O)c3ccc(Cl)cc3)c3ccc(OC)cc23)=C(C)C1=O [compound of formula (I)]
- Q1 Gated % (dead cells) (NCI-H460 cells; 10 μM): 1.72 ± 0.08%
- Q2 Gated % (late apoptotic cells) (NCI-H460 cells; 10 μM): 3.23 ± 2.59%
- Q3 Gated % (early apoptotic cells) (NCI-H460 cells; 10 μM): 1.55 ± 1.16%
- Q4 Gated % (normal cells) (NCI-H460 cells; 10 μM): 93.5 ± 3.82%
- percentage of apoptosis (total apoptosis) (NCI-H460 cells; 10 μM): 4.78 ± 3.75
- Q1 Gated % (dead cells) (NCI-H460 cells; 30 μM): 1.75 ± 0.45%
- Q2 Gated % (late apoptotic cells) (NCI-H460 cells; 30 μM): 4.79 ± 0.37%
- Q3 Gated % (early apoptotic cells) (NCI-H460 cells; 30 μM): 5.01 ± 1.70%
- Q4 Gated % (normal cells) (NCI-H460 cells; 30 μM): 88.45 ± 2.47%
- percentage of apoptosis (total apoptosis) (NCI-H460 cells; 30 μM): 9.8 ± 2.06
- Q1 Gated % (dead cells) (NCI-H460 cells; 90 μM): 0.55 ± 0.04%
- Q2 Gated % (late apoptotic cells) (NCI-H460 cells; 90 μM): 9.32 ± 0.35%
- Q3 Gated % (early apoptotic cells) (NCI-H460 cells; 90 μM): 38.35 ± 2.33%
- Q4 Gated % (normal cells) (NCI-H460 cells; 90 μM): 51.85 ± 2.05%
- percentage of apoptosis (total apoptosis) (NCI-H460 cells; 90 μM): 47.67 ± 1.99
- clinical observation (general physical signs) (ICR mice; 300 mg/kg/d single gavage): no obvious abnormal symptoms
- clinical observation (general physical signs) (ICR mice; 1000 mg/kg/d single gavage, animals other than the dead one): No obvious abnormal symptoms
- body weight of male animals (ICR mice; 3000 mg/kg/d single gavage, D3, vs vehicle control (P<0.05)): significant decrease
- clinical observation (general physical signs) (ICR mice; 3000 mg/kg/d single gavage, return to normal on D8): piloerection symptoms from D2 to D7
- food intake (ICR mice; each dosage group (300, 1000, 3000 mg/kg/d) vs vehicle control): basically consistent
- gross anatomy examination (ICR mice; each group, naked eye observation of organs and tissues): No obvious abnormalities
